Assay results from paper PMC11846984 (Nature Communications, 2025).

Biological target: T1, GPX4 (Mus musculus, UniProt O70325)
T1 sequence (O70325 28-197): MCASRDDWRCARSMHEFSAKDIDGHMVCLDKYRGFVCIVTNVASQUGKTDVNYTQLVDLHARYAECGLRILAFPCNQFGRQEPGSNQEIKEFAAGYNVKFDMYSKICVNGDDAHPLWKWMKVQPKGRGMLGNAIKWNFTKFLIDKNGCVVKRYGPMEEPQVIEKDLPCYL
Experiment: cellular thermal shift assay
Assay type: cell-based

## COc1ccc(N(C(=O)CCl)C(C(=O)NCCc2ccccc2)c2cccs2)cc1Cl (stereo not shown) [ML162]
  cellular thermal shift assay (CETSA): Both the GPX4-targeting ligand ML162 and ML-NR were found to enhance the thermal stability of the GPX4 protein
